According to patent publication US12083123B2, “Method for the detection of drug-induced organ or tissue injury in IMPDH inhibitor treated patients” (University of Cincinnati, priority 2020, dated 2024):

How the values were obtained:
[1] = system: WT-PI5P4Kβ/Pip4K2b−/− cells; assay: Lysosomal acidification in serum starved WT-PI5P4Kβ/Pip4K2b−/− cells; type: cell-based; details: MPA treatment for 2 h
Kupffer cells = assay: Human liver specimens from MMF-treated patients: macrophages in livers (Kupffer cells); type: in vivo
[2] = cited from earlier work
mouse liver hepatocytes = assay: Mouse study: liver histology and EM image analysis of MMF-treated vs untreated mice; type: in vivo
Method: The body weights of the mice were recoded every day. […] The rest of the mice were sacrificed on day 14 and a necropsy was performed on the surviving mice.
H&E and trichrome staining was performed on each liver sections from 3 MMF treated and 5 untreated mice at a CLIA-certified laboratory at CHLA.
Ultrastructural analysis was performed as described for human liver biopsies on the mouse liver tissue from the MMF treated and untreated mice. The EM images were captured digitally at the same magnification (18,000×). Thirty hepatocytes per mouse liver are selected randomly and the numbers of the mitochondria and lipid droplets were counted per hepatocytes using the digital images. In addition, the greatest dimensions of randomly selected 50 mitochondria per hepatocytes from each mouse were measured using an image analysis software, Cellsens® (Olympus, Tokyo, Japan).
The numbers of the mitochondria and the lipid droplets and the sizes of the mitochondria of the hepatocytes from MMF treated and untreated mice were compared by repeated measures mixed model analysis, with […] as a random effect and group as fixed, at a 0.005 significance level, using Prism8 software (Graphpad Software, San Diego, CA, USA).

hepatic Kupffer cells = assay: Mouse model treated with MMF by oral gavage: light microscopy of tissues, Kupffer cells and IMPDH2 expression; type: in vivo; details: MMF 120 mg/kg daily for over two weeks by oral gavage
Method: To further study the potential changes caused by MMF treatment, an animal model (mouse) was used and treated with MMF 120 mg/kg daily for over two weeks by oral gavage. As a control, another group of mice was treated with the vehicle used for MMF. Among the issues investigated (e.g., liver, kidney, ovary, brain, white adipose and brown adipose tissues, pancreas, stomach, lung), a major change that is easily detected by light microscope (400× magnification) is pointed on hepatic Kupffer cells. […] In addition, IMPDH2 expression levels within the Kupffer cells were increased compared to MMF-untreated mouse liver.

transplanted liver = assay: Transplant liver biopsies (histology, EM, LFTs) of liver transplant recipients treated with MMF; type: in vivo, human
Method: One biopsy from a patient (Case 4) was performed for surveillance purpose. Ultrastructural analysis included obtaining a small portion of the liver biopsies and post-fixing in osmium tetroxide and embedded in epoxy resin. Ultra-thin sections were stained with uranyl acetate/lead citrate. Detailed evaluation was made using Morgagni transmission electron microscope (EM, FEI, Hillsboro, OR). 2 H&E (hematoxylin and eosin) and 5 special (1 each for PAS, PASD, reticulin, iron and trichrome) stained slides were used per biopsy. ACR was diagnosed and scored using the Rejection Activity Index (RAI), which included: 1) portal inflammation (score 1-3), 2) bile duct damage (score 1-3), and 3) venous endothelial inflammation (score 1-3). Each score was added (RAI) and the degree of ACR was scored as follows: RAI=0-9; <3: borderline/indeterminate ACR, 3-4: mild ACR, 5-7: moderate ACR and >7: severe ACR. (Banff; 1997). Nonspecific hepatocellular injury is often referred to “reactive changes”. Histologic features of “reactive changes” include enlarged hepatocytes with hydropic changes (expanded, pale to clear cytoplasm) and coarse eosinophilic granules (e.g. mega-mitochondria), and nuclei with anisonucleosis and bi- and multi-nucleation, cholestasis, steatosis and necrosis. Necrosis can range from single cell necrosis (acidophil bodies) to rarely broad necrosis with collapsed lobules.

[3] = the 11 patients with elevated LFTs
[4] = EM image analysis, MMF-treated for 14 days vs untreated group
[5] = Case 1-3, liver transplant recipients treated with MMF

| SMILES | lysosomal acidification [1] | number and size of macrophages in livers (Kupffer cells) (Kupffer cells) | patients with elevated LFTs ([2]; of 79 renal transplant recipients treated with MMF) | abnormal LFTs after reduction or withdrawal of MMF ([2]; renal transplant recipients with elevated LFTs) | ALT, median and range [2, 3] | AST, median and range [2, 3] | degree of mitochondrial pleomorphism (size differences) in the hepatocytes (mouse liver hepatocytes; [4]) | numbers of lipids (lipid droplets) in the hepatocytes (mouse liver hepatocytes; [4]) | numbers of mitochondria in the hepatocytes (mouse liver hepatocytes; [4]) | death during treatment (mouse liver hepatocytes; MMF treated group, 14 day treatment) | liver histology (H&E) (mouse liver hepatocytes; MMF-treated for 14 days vs untreated mice) | changes in the other tissues by standard light microscopic analysis (hepatic Kupffer cells; kidney, ovary, brain, adipose tissues, pancreas, stomach, lung) | Kupffer cell size and numbers (hepatic Kupffer cells; light microscope 400×, vs vehicle) | IMPDH2 expression levels within the Kupffer cells (hepatic Kupffer cells; vs MMF-untreated mouse liver) | electron microscopy (EM) finding in transplant liver biopsies (transplanted liver; [5]) | histology of transplant liver biopsies (transplanted liver; [5]) | LFTs after stopping or reducing MMF (transplanted liver; Case 1 and 2) |
| --- | --- | --- | --- | --- | --- | --- | --- | --- | --- | --- | --- | --- | --- | --- | --- | --- | --- |
| COc1c(C)c2c(c(O)c1C/C=C(\C)CCC(=O)O)C(=O)OC2 [MPA, mycophenolic acid] | suppressed lysosomal acidification | – | – | – | – | – | – | – | – | – | – | – | – | – | – | – | – |
| COc1c(C)c2c(c(O)c1C/C=C(\C)CCC(=O)OCCN1CCOCC1)C(=O)OC2 [MMF, mycophenolate mofetil] | – | significant increase | 13.9% | normalized | 222.0 (51-508) U/L | 83.0 (50-123) U/L | significantly increased | significantly increased | significantly increased | Two mice in the MMF treated group died | no recognizable differences | did not show any significant changes | enlarged (hyperplasia/activated) and increased in their numbers | increased | mitochondrial pleomorphism and crystalloid inclusions | only mild nonspecific hepatocellular injury | improved |
